# Reference: publication PMC5104769, “Concentration-Dependent Dual Mode of Zn Action at Serotonin 5-HT1A Receptors: In Vitro and In Vivo Studies” (Molecular neurobiology, 2015)
# Columns and labels:
# [1] = Body temperature in rats; format: in vivo, rat; conditions: 8-OH-DPAT 5 mg/kg, vs saline group
# Description: The experiments were performed on male Albino Swiss mice (23–25 g) and Sprague Dawley rats (200–250 g) from Charles River, Germany as well as TPH2-Cre-ER^T2 x flx-5-HT1A-flx-YFP mice from Jackson Labs, Bangor ME and the Hen lab, respectively. The animals were kept under standard laboratory conditions with respect to lighting (light phase 7:00–19:00) and temperature (19–21 °C). Food and water were freely available. Each experimental group consisted of eight to ten animals. All of the animals were experimentally naive and were used only once in each test. The experiments were performed during the light period (9:00–14:00 h). All of the procedures were conducted according to the guidelines of the National Institutes of Health Animal Care and Use Committee and were approved by the Ethics Committees of the Institute of Pharmacology, Polish Academy of Sciences in Krakow and the Animal Care Committee, University of Ottawa. […]
# The effects of Zn (2, 5, 7.5 and 11.5 mg Zn/kg for rats and 2 and 5 mg/kg for mice, given as a Zn hydroaspartate), 8-OH-DPAT (5 mg/kg) and WAY-100635 (0.1mg/kg) on rectal body temperature were recorded 30 and 60 min after their acute administration. The results were expressed as a change in body temperature with respect to the basal body temperature, which was measured at the beginning of the experiments.
# [2] = tested on: Sprague Dawley rats; assay: Forced swim test (FST) in rats; format: in vivo, rat
# Description: The test was carried out according to the method described previously [10]. On day one of the experiment, the animals were individually placed in plexiglass cylinders (40 cm in height, 18 cm in diameter), containing 25 cm of water maintained at 24–25 °C for a 15-min habituation period. After the rats were removed from the water, they were again placed in their home cages. On the second day, the rats were again placed in the cylinders, and the total duration of immobility was measured for a 5-min test period. Zn (1 or 2 mg Zn/ kg, given as Zn hydroaspartate) and 8-OH-DPAT (0.1 or 0.3 mg/kg) were administered alone or jointly 30 min before the test. WAY-100635 (0.1 mg/kg) was administered 15 min before the Zn treatment.
# [3] = tested on: Sprague Dawley rats; assay: 5-HT behavioural syndrome (flat body posture, forepaw treading) in rats; format: in vivo, rat; conditions: VEH + 8-OH-DPAT 5 mg/kg
# Description: The experiments were performed on male Albino Swiss mice (23–25 g) and Sprague Dawley rats (200–250 g) from Charles River, Germany as well as TPH2-Cre-ER^T2 x flx-5-HT1A-flx-YFP mice from Jackson Labs, Bangor ME and the Hen lab, respectively. The animals were kept under standard laboratory conditions with respect to lighting (light phase 7:00–19:00) and temperature (19–21 °C). Food and water were freely available. Each experimental group consisted of eight to ten animals. All of the animals were experimentally naive and were used only once in each test. The experiments were performed during the light period (9:00–14:00 h). All of the procedures were conducted according to the guidelines of the National Institutes of Health Animal Care and Use Committee and were approved by the Ethics Committees of the Institute of Pharmacology, Polish Academy of Sciences in Krakow and the Animal Care Committee, University of Ottawa.
# Zn (all doses refer to mg Zn/kg) was given as either Zn hydroaspartate (Farmapol, Poland) or Zn chloride (Sigma-Aldrich) and was dissolved in 0.9 % NaCl and administered intraperitoneally (i.p.). 8-OH-DPAT and WAY-100635 were dissolved in aqua pro-injection and were administered subcutaneously (s.c.). Controls were treated with the appropriate diluent, which was indicated as VEH on the graphs and in the tables.
# The experiments were conducted according to previously published procedure, with a modification to the ranked intensity scale. Briefly, the rats were individually placed in cages (30×25×25 cm) 5 min before tested compounds were injected. Forepaw treading (FT) and flat body posture (FBP) were scored using a ranked intensity scale, where 0=absent, 1=equivocal and 2=present. The Zn (2, 5, 7.5 and 11.5 mg Zn/kg, given as a Zn hydroaspartate)-induced behavioural syndrome was scored for each animal 3, 6, 9, 12 and 15 min after the Zn treatment. Each observation session lasted for 45 s. The maximum score, which was summed over 5 observation periods, was 10 for each symptom/rat. The effect of Zn on the behavioural syndrome induced by 8-OH-DPAT (5 mg/kg) was scored using the same scale. Zn was administered 60 min before 8-OH-DPAT, and the animals were scored 3, 6, 9, 12 and 15 min after the 8-OH-DPAT treatment.
# [4] = tested on: Sprague Dawley rats; assay: Lower lip retraction (LLR) in rats; format: in vivo, rat; conditions: for induction of LLR (in words): given alone: 8-OH-DPAT 1 mg/kg, Zn 2 and 5 mg/kg, WAY-100635 0.1 mg/kg
# Description: The experiments were performed on male Albino Swiss mice (23-25 g) and Sprague Dawley rats (200-250 g) from Charles River, Germany as well as […]-flx-YFP mice from Jackson Labs, Bangor ME and the Hen lab, respectively. The animals were kept under standard laboratory conditions with respect to lighting (light phase 7:00-19:00) and temperature (19-21 °C). Food and water were freely available. Each experimental group consisted of eight to ten animals. All of the animals were experimentally naive and were used only once in each test. The experiments were performed during the light period (9:00-14:00 h). All of the procedures were conducted according to the guidelines of the National Institutes of Health Animal Care and Use Committee and were approved by the Ethics Committees of the Institute of Pharmacology, Polish Academy of Sciences in Krakow and the Animal Care Committee, University of Ottawa. […] Controls were treated with the appropriate diluent, which was indicated as VEH on the graphs and in the tables. LLR was assessed according to the method described by Berendsen et al., [20]. The rats were individually placed in cages (30×25×25 cm) and were scored three times, 15, 30 and 45 min after the administration of Zn as follows: 0=lower incisors not visible, 0.5=partly visible and 1=completely visible. Zn was administered at doses of 2 and 5 mg Zn/kg (given as Zn hydroaspartate, Farmapol, Poland). The maximum total score was 3/rat. In addition, the effects of Zn and WAY-100635 (0.1 mg/kg; […] Sigma) were tested.
# [5] = Body temperature in mice; format: in vivo, mouse
# Description: The experiments were performed on male Albino Swiss mice (23-25 g) and Sprague Dawley rats (200-250 g) from Charles River, Germany as well as […]-flx-YFP mice from Jackson Labs, Bangor ME and the Hen lab, respectively. The animals were kept under standard laboratory conditions with respect to lighting (light phase 7:00-19:00) and temperature (19-21 °C). Food and water were freely available. Each experimental group consisted of eight to ten animals. All of the animals were experimentally naive and were used only once in each test. The experiments were performed during the light period (9:00-14:00 h). All of the procedures were conducted according to the guidelines of the National Institutes of Health Animal Care and Use Committee and were approved by the Ethics Committees of the Institute of Pharmacology, Polish Academy of Sciences in Krakow and the Animal Care Committee, University of Ottawa. […] Controls were treated with the appropriate diluent, which was indicated as VEH on the graphs and in the tables. […] The results were expressed as a change in body temperature with respect to the basal body temperature, which was measured at the beginning of the experiments.
# [6] = target: T1, human 5-HT1AR stably expressed in HEK293 cells (Homo sapiens, UniProt P08908); assay: Saturation binding of [3H]-8-OH-DPAT in the absence and presence of Zn; conditions: saturation binding
# T1 construct: The full-length human 5HTR1A complementary DNA (cDNA); membranes prepared from the cells
# T1 sequence (P08908 1-422): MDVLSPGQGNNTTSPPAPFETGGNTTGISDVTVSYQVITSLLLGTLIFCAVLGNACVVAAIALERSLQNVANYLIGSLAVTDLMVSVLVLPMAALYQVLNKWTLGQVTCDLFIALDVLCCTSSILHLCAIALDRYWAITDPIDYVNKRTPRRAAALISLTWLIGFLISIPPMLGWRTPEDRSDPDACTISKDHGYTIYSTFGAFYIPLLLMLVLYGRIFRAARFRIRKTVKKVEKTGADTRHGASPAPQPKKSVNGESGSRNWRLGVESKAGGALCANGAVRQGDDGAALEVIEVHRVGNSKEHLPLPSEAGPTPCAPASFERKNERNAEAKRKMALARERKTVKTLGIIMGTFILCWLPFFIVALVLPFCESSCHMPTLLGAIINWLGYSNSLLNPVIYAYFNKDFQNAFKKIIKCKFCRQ
# Description: The full-length human 5HTR1A complementary DNA (cDNA), which was cloned into the mammalian expression vector pcDNA3.1(+), was obtained from the Missouri S&T cDNA Resource Center (www.cdna.org). The receptor cDNA was stably transfected into human embryonic kidney cells (HEK293, ATCC) with the use of Lipofectamine 2000 (Invitrogen).
# Cell pellets were thawed and homogenized in 20 volumes of 50 mM Tris–HCl buffer (pH 7.7) containing 0.1 mM EDTA and 10 mM MgCl2, using an Ultra Turrax tissue homogenizer. The pellets were then centrifuged twice at 35,000g for 20 min at 4 °C, with incubation for 15 min at 37 °C in between centrifugations. Membranes were aliquoted in tubes. Membrane protein concentrations were determined using the Pierce™ Coomassie (Bradford) Protein Assay Kit, with bovine serum albumin (BSA) as a standard.
# The incubation buffer consisted of 50 mM Tris–HCl (pH 7.7), 10 mM MgCl2, 10 mM pargyline and 0.1 % ascorbic acid. Radioligand binding assays were performed by incubating 30 μg of protein of the membrane suspension in 96-well microtitre plates for 60 min at room temperature with shaking, in a total volume of 200 μl. The binding reactions were stopped by filtration through GF/C Unifilter plates using a harvester (PerkinElmer). The plate filters were dried, and 20 μl of Ultima Gold MV (PerkinElmer) was added. Radioactivity was measured using a MicroBeta TriLux counter (PerkinElmer).
# All experiments were performed in triplicate, and the results were obtained from at least three independent experiments. The data are expressed as the mean±S.D. (standard deviation). The experimental data were analysed using GraphPad Prism 5.1 for Windows (GraphPad Software, San Diego California USA, www.graphpad.com).
compound,measurement,setting,value
"CCCN(CCC)C1CCc2cccc(O)c2C1 (stereo not drawn) [8-OH-DPAT, 8-Hydroxy-2-(di-n-propylamino)tetralin, reference compound]",change in body temperature,[1],significant decrease in body temperature
same,immobility time in the FST,[2]; 8-OH-DPAT 0.1 mg/kg,not 0.1 mg/kg (p>0.05) decreased the immobility time
same,immobility time in the FST,[2]; 8-OH-DPAT 0.3 mg/kg,decreased the immobility time
same,behavioural score FBP (B) 8-OH-DPAT,[3],7.83±0.7
same,behavioural score FT (B) 8-OH-DPAT,[3],7.5±0.6
same,Mean LLR score (B) 8-OH-DPAT 1 mg/kg,[4]; VEH pretreatment + 8-OH-DPAT 1 mg/kg,2.25±0.46
same,induction of LLR (in words),[4],induced LLR
same,change in body temperature,"[5]; 8-OH-DPAT 5 mg/kg, vs saline group",significant decrease in body temperature
"COc1ccccc1N1CCN(CCN(C(=O)C2CCCCC2)c2ccccn2)CC1 [WAY-100635, N-[2[4-(2-methoxyphenyl)-1-piperazinyl]ethyl]-N-(2-pyridyl)cyclohexanecarboxamide, reference compound]",effect on Zn-induced decrease in immobility time,[2]; WAY-100635 0.1 mg/kg 15 min before Zn,antagonized the Zn-induced decrease in the immobility time
same,behaviour in the FST,[2]; WAY-100635 0.1 mg/kg given alone,did not change the behaviour of the animals
same,Mean LLR score (B) 8-OH-DPAT 1 mg/kg,[4]; WAY 100635 0.1 mg/kg 45 min before 8-OH-DPAT 1 mg/kg,0.67±0.76
same,Mean LLR score (A) VEH,"[4]; WAY 100635 0.1 mg/kg s.c. alone, max score 3/rat",0.0±0.0
same,effect on LLR induced by 8-OH-DPAT (in words),[4]; Zn 2 and 5 mg/kg or WAY-100635 0.1 mg/kg before 8-OH-DPAT 1 mg/kg,blocked the LLR induced by 8-OH-DPAT
same,induction of LLR (in words),[4],did not evoke LLR
same,effect of pretreatment on Zn-induced decrease in body temperature,[5]; WAY-100635 0.1 mg/kg s.c. 15 min before Zn,abolished the effect induced by Zn
CCCN(CCC)C1CCc2cccc(O)c2C1 (stereo not drawn) [[^3H]-8-OH-DPAT],Bmax of [3H]8-OH-DPAT,[6]; Zn2+ 0 μM,4.5±0.3 pM/mg prot
same,Bmax of [3H]8-OH-DPAT,[6]; Zn2+ 10 μM,5.8±0.7 pM/mg prot
same,Bmax of [3H]8-OH-DPAT,"[6]; Zn2+ 10 μM, listed as [^3H]8-OH-DPAT",5.8±0.7 pM/mg prot
same,Bmax of [3H]8-OH-DPAT,[6]; Zn2+ 100 μM,6.2±2.0 pM/mg prot
same,Bmax of [3H]8-OH-DPAT,[6]; Zn2+ 500 μM,4.7±0.7 pM/mg prot
same,Bmax of [3H]8-OH-DPAT,[6]; Zn2+ 1000 μM,4.0±0.6 pM/mg prot
